In patent US20240132489A1, “AROMATIC HETEROCYCLIC COMPOUND, PHARMACEUTICAL COMPOSITION, AND USE THEREOF” (GT APEIRON THERAPEUTICS LIMITED, priority 2020, published 2024):
Where a name gives a salt, the structure may show the parent alone.

Assays:
[1] = target: CDK7/cyclin H/MAT1 complex (Homo sapiens (Human), UniProt P50613); test: In vitro enzymatic inhibitory activity test, CDK7; type: biochemical; settings: Caliper mobility shift, 180 min at 27° C.
Description: (§1) CDK7/CyclinH was diluted in a test buffer solution (20 mM MES PH6.75, 0.01% Tween20, 50 ug/mL BSA, 6 mM MgCl2) to obtain a corresponding enzyme solution with a 2.4× concentration. CDK2/CyclinE1 was diluted in a test buffer solution (20 mM MES PH6.75, 0.01% Tween20, 50 ug/mL BSA, 6 mM MgCl2) to obtain a corresponding enzyme solution with a 2.4× concentration. CDK9/CyclinT1 was diluted in a test buffer solution (20 mM MES PH6.75, 0.01% Tween20, 50 ug/mL BSA, 10 mM MgCl2) to obtain a corresponding enzyme solution with a 2.4× concentration. CDK12/CyclinK was diluted in a test buffer solution (80 mM MES PH6.5, 0.01% Tween20, 50 ug/mL BSA, 10 mM MgCl2) to obtain a corresponding enzyme solution with a 2.4× concentration. The compounds were dissolved in dimethyl sulfoxide (DMSO) at a concentration of 10 mM. […] 2 ul of a test compound solution was mixed with 5 ul of enzyme solution. After incubating for 10 min, 5 ul of the mixed solution of the polypeptide substrate and ATP was added. After incubating at 27° C. for 180 min, 4 uL of EDTA with a 120 mM concentration was added to each sample to stop the reaction. […] A CDK9/cyclin TI complex (8 nM) and a “5-FAM-CDK9tide” peptide substrate (2 μM, synthetic fluorophore labeled peptide having the following sequence: 5-FAM-GSRTPMY-NH2, where 5-FAM was as defined above, and NH2 represented C-terminal amide) were used for testing the CDK9 inhibition. […] A CDK2/cyclin E1 complex (0.5 nM) and the “5-FAM-CDK7tide” (2 μM) as defined above were used for testing the CDK2 inhibition.
(§2) Electrophoretic separation was performed on Caliper EZ Reader II by means of a fluorogenic substrate and a phosphorylated product to analyze the reaction mixture. Data were calculated by using GraphPad Prism version 6.0. IC50 values were adjusted by means of a nonlinear regression model using a dose-response curve.

CDK2/cyclin E1 complex = CDK2/cyclin E1 complex (Homo sapiens (Human), UniProt P24941); test: In vitro enzymatic inhibitory activity test, CDK2; type: biochemical; settings: Caliper mobility shift, 180 min at 27° C.
Description: CDK7/CyclinH was diluted in a test buffer solution (20 mM MES PH6.75, 0.01% Tween20, 50 ug/mL BSA, 6 mM MgCl2) to obtain a corresponding enzyme solution with a 2.4× concentration. CDK2/CyclinE1 was diluted in a test buffer solution (20 mM MES PH6.75, 0.01% Tween20, 50 ug/mL BSA, 6 mM MgCl2) to obtain a corresponding enzyme solution with a 2.4× concentration. CDK9/CyclinT1 was diluted in a test buffer solution (20 mM MES PH6.75, 0.01% Tween20, 50 ug/mL BSA, 10 mM MgCl2) to obtain a corresponding enzyme solution with a 2.4× concentration. CDK12/CyclinK was diluted in a test buffer solution (80 mM MES PH6.5, 0.01% Tween20, 50 ug/mL BSA, 10 mM MgCl2) to obtain a corresponding enzyme solution with a 2.4× concentration. […] 2 ul of a test compound solution was mixed with 5 ul of enzyme solution. After incubating for 10 min, 5 ul of the mixed solution of the polypeptide substrate and ATP was added. After incubating at 27° C. for 180 min, 4 uL of EDTA with a 120 mM concentration was added to each sample to stop the reaction. […] A CDK9/cyclin TI complex (8 nM) and a “5-FAM-CDK9tide” peptide substrate (2 μM, synthetic fluorophore labeled peptide having the following sequence: 5-FAM-GSRTPMY-NH2, where 5-FAM was as defined above, and NH2 represented C-terminal amide) were used for testing the CDK9 inhibition. […] A CDK2/cyclin E1 complex (0.5 nM) and the “5-FAM-CDK7tide” (2 μM) as defined above were used for testing the CDK2 inhibition.
as §2

[2] = target: CDK12(aa686-1082)/cyclin K complex (Homo sapiens (Human), UniProt Q9NYV4); test: In vitro enzymatic inhibitory activity test, CDK12; type: biochemical; settings: Caliper mobility shift, 180 min at 27° C.
Description: as §1, §2

A2780 cells = test: Cell bioactivity detection (CyQuant), A2780; type: cell-based, human; settings: Homo sapiens, A2780, 72 h, ovarian carcinoma cells A2780, 72 hours
Description: (§3) Trypsinization was performed on A2780 and HCC70 cells. Cell suspensions were respectively transferred to 15 mL of centrifuge tubes and centrifuged at 800 rpm for 5 min. The supernatant was discarded. Resuspension in a fresh culture medium (RPMI 1640+10% FBS) was performed. After counting, the cells were inoculated at 2000/well in a 384-well plate (50 φL of 1640+10% FBS culture medium was added to the 2nd line and the 23rd line of the 384-well plate, and 50 μL of DPBS was added to surrounding wells). Incubation in an incubator (37° C., 5% CO2) was performed overnight.
(§4) The compound was added to the well plate the next day. The compound had the highest concentration of 10 μM and was diluted at the ratio of 1:4 to form 9 concentrations. The positive compound Paclitaxel had the highest concentration of 1 μM and was diluted at the ratio of 1:3 to form 9 concentrations. The DMSO content of each well was unified to 0.2%. A cell plate was centrifuged at 800 rpm for 30 seconds. Incubation for 72 hours in an incubator (37° C., 5% CO2) was performed. On the fourth day, a Cyquant reagent (3×) was prepared according to kit instructions. Each 384-well plate was prepared in the following proportions: DPBS: 11.568 mL, CyQuant® Direct nucleic acid stain: 72 μL, CyQuant® Direct background suppressor: 360 ILL. The plates were uniformly mixed and placed for standby application at room temperature. The cell plate was taken out and placed at room temperature to be balanced for 30 min. 25 μL of Cyquant reagent (3×) was dispensed to the cells in each well of the 384-well plates by using a Multi-drop dispenser. Incubation at 37° C. for 60 or more minutes was performed. The plates were read by Acumen (Acumen was configured to have a 488 nm excitation wavelength). IC50 results were analyzed by XLFIT5 of the IDBS company.

HCC70 cells = test: Cell bioactivity detection (CyQuant), HCC70; type: cell-based; settings: Homo sapiens, HCC70, 72 h, human breast cancer cells HCC70, 72 hours
Description: as §3, §4

CDK9/CyclinT1 = CDK9/CyclinT1 (Homo sapiens (Human), UniProt P50750); test: In vitro enzymatic inhibitory activity test, CDK9; type: biochemical; settings: Caliper mobility shift, 180 min at 27° C.
Description: as §1, §2

Chain of CDK7/cyclin H/MAT1 complex (P50613 whole entry, species assumed): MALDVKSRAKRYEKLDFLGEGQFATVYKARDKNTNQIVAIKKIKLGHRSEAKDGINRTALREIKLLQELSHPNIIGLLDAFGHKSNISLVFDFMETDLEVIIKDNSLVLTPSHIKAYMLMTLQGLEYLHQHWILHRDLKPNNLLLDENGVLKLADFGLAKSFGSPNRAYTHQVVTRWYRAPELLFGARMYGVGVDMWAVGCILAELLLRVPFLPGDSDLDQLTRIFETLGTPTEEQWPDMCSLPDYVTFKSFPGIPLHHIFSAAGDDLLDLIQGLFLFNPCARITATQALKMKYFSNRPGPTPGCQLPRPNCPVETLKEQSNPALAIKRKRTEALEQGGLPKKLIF
Chain of CDK7/cyclin H/MAT1 complex (P51946 whole entry partner, species assumed): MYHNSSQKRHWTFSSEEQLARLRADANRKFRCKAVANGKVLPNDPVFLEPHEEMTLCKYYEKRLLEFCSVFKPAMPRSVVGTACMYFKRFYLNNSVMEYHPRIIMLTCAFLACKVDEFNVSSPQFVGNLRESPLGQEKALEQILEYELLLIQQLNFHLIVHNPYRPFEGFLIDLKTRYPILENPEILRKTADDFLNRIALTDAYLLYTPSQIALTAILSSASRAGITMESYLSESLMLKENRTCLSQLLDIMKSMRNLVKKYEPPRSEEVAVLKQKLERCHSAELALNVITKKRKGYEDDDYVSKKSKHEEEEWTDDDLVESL
Chain of CDK7/cyclin H/MAT1 complex (P51948 whole entry partner, species assumed): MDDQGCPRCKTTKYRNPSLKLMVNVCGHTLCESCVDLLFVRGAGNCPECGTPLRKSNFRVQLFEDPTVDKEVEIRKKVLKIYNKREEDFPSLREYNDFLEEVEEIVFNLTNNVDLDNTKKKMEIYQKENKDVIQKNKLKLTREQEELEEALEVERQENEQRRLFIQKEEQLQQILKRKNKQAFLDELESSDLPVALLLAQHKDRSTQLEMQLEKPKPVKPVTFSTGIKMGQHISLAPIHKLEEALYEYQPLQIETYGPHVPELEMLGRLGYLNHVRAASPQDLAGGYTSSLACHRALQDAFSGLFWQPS
Chain of CDK12(aa686-1082)/cyclin K complex (Q9NYV4 686-1082, species assumed): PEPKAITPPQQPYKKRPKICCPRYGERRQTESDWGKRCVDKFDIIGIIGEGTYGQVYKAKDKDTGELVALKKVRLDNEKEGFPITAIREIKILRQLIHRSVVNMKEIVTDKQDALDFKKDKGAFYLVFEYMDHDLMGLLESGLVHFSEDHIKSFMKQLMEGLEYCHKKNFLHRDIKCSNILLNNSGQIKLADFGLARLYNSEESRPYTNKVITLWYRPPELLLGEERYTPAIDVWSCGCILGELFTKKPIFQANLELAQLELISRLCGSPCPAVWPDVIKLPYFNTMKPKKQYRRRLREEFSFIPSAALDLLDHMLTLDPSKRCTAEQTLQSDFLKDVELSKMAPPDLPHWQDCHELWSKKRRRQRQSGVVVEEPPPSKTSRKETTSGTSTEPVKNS
Chain of CDK12(aa686-1082)/cyclin K complex (O75909 whole entry partner, species assumed, the tested form may be a part): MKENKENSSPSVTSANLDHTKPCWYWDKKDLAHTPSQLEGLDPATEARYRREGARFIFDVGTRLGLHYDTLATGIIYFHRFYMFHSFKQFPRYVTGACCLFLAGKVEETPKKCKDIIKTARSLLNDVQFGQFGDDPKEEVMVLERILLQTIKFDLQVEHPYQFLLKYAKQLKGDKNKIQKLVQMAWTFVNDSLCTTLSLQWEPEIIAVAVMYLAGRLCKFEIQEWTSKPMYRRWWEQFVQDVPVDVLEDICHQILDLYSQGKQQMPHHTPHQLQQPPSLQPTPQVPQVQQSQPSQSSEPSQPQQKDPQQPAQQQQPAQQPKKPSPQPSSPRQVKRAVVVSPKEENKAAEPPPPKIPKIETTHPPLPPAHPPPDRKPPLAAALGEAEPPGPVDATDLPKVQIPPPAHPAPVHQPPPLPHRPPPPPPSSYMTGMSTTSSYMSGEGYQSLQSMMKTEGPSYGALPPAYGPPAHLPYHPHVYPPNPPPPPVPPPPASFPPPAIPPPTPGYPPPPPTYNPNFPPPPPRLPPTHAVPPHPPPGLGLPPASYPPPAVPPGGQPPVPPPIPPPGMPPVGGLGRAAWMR
Chain of CDK9/CyclinT1 (P50750 whole entry, species assumed): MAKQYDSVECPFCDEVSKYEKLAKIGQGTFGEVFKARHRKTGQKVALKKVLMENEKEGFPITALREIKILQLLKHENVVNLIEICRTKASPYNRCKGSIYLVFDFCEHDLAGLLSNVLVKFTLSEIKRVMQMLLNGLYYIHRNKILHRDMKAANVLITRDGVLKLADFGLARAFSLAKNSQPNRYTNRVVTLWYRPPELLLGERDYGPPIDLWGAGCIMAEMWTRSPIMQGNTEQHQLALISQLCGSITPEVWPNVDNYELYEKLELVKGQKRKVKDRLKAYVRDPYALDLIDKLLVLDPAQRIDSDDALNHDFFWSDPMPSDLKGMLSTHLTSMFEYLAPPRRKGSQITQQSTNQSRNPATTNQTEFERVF
Chain of CDK9/CyclinT1 (O60563 whole entry partner, species assumed): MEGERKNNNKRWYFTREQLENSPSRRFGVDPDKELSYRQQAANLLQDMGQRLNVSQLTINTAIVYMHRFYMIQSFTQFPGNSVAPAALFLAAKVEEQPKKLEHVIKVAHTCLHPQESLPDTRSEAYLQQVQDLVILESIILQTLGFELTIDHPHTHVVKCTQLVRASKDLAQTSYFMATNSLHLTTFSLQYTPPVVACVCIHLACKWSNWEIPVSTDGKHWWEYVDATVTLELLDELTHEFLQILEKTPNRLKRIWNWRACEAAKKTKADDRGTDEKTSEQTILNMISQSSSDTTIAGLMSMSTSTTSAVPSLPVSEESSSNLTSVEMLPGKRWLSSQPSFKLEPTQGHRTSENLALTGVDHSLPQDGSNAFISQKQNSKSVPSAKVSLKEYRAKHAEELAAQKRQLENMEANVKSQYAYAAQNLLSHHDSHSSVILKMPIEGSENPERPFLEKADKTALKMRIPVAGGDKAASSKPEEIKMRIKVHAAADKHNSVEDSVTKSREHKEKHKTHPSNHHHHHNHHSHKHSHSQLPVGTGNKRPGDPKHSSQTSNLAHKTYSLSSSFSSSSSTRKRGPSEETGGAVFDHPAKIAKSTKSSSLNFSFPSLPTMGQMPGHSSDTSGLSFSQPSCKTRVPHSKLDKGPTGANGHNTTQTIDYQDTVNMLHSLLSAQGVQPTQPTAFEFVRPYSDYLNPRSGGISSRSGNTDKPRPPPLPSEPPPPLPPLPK

SMILES	IC50 [1] [nM]	IC50 (CDK2/cyclin E1 complex) [nM]	IC50 [2] [nM]	IC50 (A2780 cells) [nM]	IC50 (CDK9/CyclinT1) [nM]	IC50 (HCC70 cells) [nM]
FC(F)(F)c1cnc(N[C@H]2CCCNC2)nc1-c1c[nH]c2nc(N3CCCOCC3)ccc12 [Compound 22, (S)-4-(6-(1,4-oxazepan-4-yl)-1H-pyrrolo[2,3-b]pyridin-3-yl)-N-(piperidin-3-yl)-5-(trifluoromethyl)pyrimidine-2-amine]	7.05	3050	783	4.7	2860	10.7
CC1(O)CCN(c2ccc3c(-c4nc(N[C@H]5CCCNC5)ncc4C(F)(F)F)c[nH]c3n2)CC1 [Compound 23, (S)-4-methyl-1-(3-(2-(piperidine-3-amino)-5-(trifluoromethyl)pyrimidin-4-yl)-1H-pyrrolo[2,3-b]pyridin-6-yl)piperidin-4-ol]	13.1	4310	783	8.8	2610	19.9
FC(F)(F)c1cnc(N[C@H]2CCCNC2)nc1-c1c[nH]c2nc(N3CCN(C4COC4)CC3)ccc12 [Compound 24, (S)-4-(6-(4-(oxetan-3-yl)piperazin-1-yl)-1H-pyrrolo[2,3-b]pyridin-3-yl)-N-(piperidin-3-yl)-5-(trifluoromethyl)pyrimidine-2-amine]	17.4	8500	1970	110	5250	72
FC(F)(F)c1cnc(N[C@H]2CCCNC2)nc1-c1c[nH]c2nc(C3=CCOCC3)ccc12 [Compound 27, (S)-4-(6-(3,6-dihydro-2H-pyran-4-yl)-1H-pyrrolo[2,3-b]pyridin-3-yl)-N-(piperidin-3-yl)-5-(trifluoromethyl)pyrimidine-2-amine]	2.17	1120	418	5.1	1500	30
FC(F)(F)c1cnc(N[C@H]2CCCNC2)nc1-c1c[nH]c2nc(C3CCCCO3)ccc12 (stereo partly drawn) [Compound 30, N—((S)-piperidin-3-yl)-4-(6-(tetrahydropyran-2-yl)-1H-pyrrolo[2,3-b]pyridin-3-yl)-5-(trifluoromethyl)pyrimidine-2-amine formate]	10.5	3260	2150	5.6	9530	20

Further compounds by falling IC50 [1], results first:

IC50 [1] [nM]	IC50 (CDK2/cyclin E1 complex) [nM]	IC50 [2] [nM]	IC50 (A2780 cells) [nM]	IC50 (CDK9/CyclinT1) [nM]	SMILES	IC50 (HCC70 cells) [nM]
9.5	> 10000	> 10000	30	> 10000	C[C@H]1COCCN1c1ccc2c(-c3nc(N[C@H]4CCC(C)(C)NC4)ncc3C(F)(F)F)c[nH]c2n1 [Compound 26, N—((S)-6,6-dimethylpiperidin-3-yl)-4-(6-((S)-3-methylmorpholinyl)-1H-pyrrolo[2,3-b]pyridin-3-yl)-5-(trifluoromethyl)pyrimidine-2-amine]	52
7.08	1260	855	2.1	2480	FC(F)(F)c1cnc(N[C@H]2CCCNC2)nc1-c1c[nH]c2nc(C3CCOC3)ccc12 (stereo partly drawn) [Compound 29, N—((S)-piperidin-3-yl)-4-(6-(tetrahydrofuran-3-yl)-1H-pyrrol[2,3-b]pyridin-3-yl)-5-(trifluoromethyl)pyrimidine-2-amine formate]	3.1
6.96	3470	1100	7.8	3630	FC(F)(F)c1cnc(N[C@H]2CCCNC2)nc1-c1c[nH]c2nc(C3CCOCC3)ccc12 [Compound 28, (S)—N-(piperidin-3-yl)-4-(6-(tetrahydro-2H-pyran-4-yl)-1H-pyrrolo[2,3-b]pyridin-3-yl)-5-(trifluoromethyl)pyrimidine-2-amine formate]	7.7
6.5	1040	277	7.9	402	O=S1(=O)CCN(c2ccc3c(-c4nc(N[C@H]5CCCNC5)ncc4C(F)(F)F)c[nH]c3n2)CC1 [Compound 25, (S)-4-(3-(2-(piperidine-3-amino)-5-(trifluoromethyl)pyrimidin-4-yl)-1H-pyrrolo[2,3-b]pyridin-6-yl)thiomorpholine-1,1-dioxide]	11
